ChEMBL document CHEMBL1201862, “PubChem BioAssay data set” (2004)
Activity calls are given as the source filed them.

Tests used:
[1] = target: Voltage-gated inwardly rectifying potassium channel KCNH2 (Homo sapiens, UniProt Q12809); details: Potency;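 note: confirmatory quantitative high-throughput screen measuring inhibition of hERG channel activity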
[2] = target: T1, High affinity choline transporter 1 (Homo sapiens, UniProt Q9GZV3); assay: CHT inhibitors, dose response, cell-based, 5-point CRC, membrane potential dye (AID 504840); format: functional
T1 sequence (Q9GZV3 whole entry): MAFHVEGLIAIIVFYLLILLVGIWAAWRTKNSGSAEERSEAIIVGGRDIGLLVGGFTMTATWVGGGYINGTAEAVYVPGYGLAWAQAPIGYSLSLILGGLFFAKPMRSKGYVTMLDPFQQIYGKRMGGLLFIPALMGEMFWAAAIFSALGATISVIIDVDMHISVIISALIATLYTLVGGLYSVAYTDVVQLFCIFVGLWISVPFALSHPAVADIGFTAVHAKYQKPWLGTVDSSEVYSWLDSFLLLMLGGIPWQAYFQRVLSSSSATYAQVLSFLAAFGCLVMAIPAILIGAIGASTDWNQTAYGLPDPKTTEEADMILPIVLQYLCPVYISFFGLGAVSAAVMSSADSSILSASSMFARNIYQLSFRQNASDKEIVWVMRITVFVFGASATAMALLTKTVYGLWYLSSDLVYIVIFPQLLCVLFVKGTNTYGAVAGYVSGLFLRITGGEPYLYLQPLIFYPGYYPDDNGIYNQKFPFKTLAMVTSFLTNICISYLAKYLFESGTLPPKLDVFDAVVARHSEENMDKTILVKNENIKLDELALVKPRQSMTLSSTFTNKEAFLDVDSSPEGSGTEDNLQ

[3] = target: Glucose-6-phosphate 1-dehydrogenase (Homo sapiens, UniProt P11413); assay: human G6PD enzyme inhibitors, dose response, selectivity assay for P. falciparum G6PD inhibitor project, biochemical, fluorescence (AID 504792); format: functional
[4] = target: T2, Aryl hydrocarbon receptor (Homo sapiens, UniProt P35869); details: Potency;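 note: confirmatory quantitative high-throughput screen measuring activation of the AhR signaling pathway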
T2 sequence (P35869 whole entry): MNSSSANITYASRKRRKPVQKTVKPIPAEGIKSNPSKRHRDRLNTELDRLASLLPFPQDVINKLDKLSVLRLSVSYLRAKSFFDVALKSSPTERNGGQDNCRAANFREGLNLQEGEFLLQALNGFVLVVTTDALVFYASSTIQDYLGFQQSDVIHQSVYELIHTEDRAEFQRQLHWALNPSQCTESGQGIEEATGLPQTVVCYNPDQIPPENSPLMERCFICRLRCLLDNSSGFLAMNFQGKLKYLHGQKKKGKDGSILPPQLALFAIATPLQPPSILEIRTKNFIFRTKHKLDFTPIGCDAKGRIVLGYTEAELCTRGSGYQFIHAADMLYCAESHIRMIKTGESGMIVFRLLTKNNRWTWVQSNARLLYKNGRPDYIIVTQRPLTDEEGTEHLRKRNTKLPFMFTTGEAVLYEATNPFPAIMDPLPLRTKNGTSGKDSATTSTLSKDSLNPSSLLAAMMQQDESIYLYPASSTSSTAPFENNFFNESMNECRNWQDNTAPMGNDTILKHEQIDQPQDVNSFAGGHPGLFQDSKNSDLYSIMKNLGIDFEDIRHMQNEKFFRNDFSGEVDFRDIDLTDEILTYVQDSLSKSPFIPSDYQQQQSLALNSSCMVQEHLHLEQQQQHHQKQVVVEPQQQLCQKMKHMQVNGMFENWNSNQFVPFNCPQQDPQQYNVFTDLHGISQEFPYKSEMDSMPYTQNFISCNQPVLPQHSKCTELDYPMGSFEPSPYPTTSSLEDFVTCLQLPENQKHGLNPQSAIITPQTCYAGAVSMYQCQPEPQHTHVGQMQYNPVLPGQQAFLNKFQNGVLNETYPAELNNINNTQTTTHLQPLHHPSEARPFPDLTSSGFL

CHO = assay: cytotoxicity in TLR9-MyD88 CHO cells, dose response, cytotoxicity control for TLR9-MyD88 binding inhibitor project, cell-based, luminescence (AID 588339); format: functional, hamster; details: Cricetulus griseus;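 note: CHO cells stably coexpressing TLR9 and MyD88 fusions from primary screen; compound exposure lasted 48 hours before viability readout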
[5] = target: T3, Polyadenylate-binding protein 1 (Homo sapiens, UniProt P11940); assay: PABP1 MLLE–PAM2 binding inhibitor potency, dose response, biochemical, fluorescence polarization, FITC-PAM2 peptide (AID 602259); format: functional; details: read-out: IC50_Mean
Protein RecA = target: T4, Protein RecA (Mycobacterium tuberculosis, UniProt P9WHJ3); assay: Fluorescence Cell-Free Homogeneous Dose Retest to Identify Inhibitors of RecA-Intein Splicing Activity. [Related pubchem assays (depositor defined):AID2097, AID2223, AID489010, AID492950]; format: functional
T4 sequence (P9WHJ3 whole entry): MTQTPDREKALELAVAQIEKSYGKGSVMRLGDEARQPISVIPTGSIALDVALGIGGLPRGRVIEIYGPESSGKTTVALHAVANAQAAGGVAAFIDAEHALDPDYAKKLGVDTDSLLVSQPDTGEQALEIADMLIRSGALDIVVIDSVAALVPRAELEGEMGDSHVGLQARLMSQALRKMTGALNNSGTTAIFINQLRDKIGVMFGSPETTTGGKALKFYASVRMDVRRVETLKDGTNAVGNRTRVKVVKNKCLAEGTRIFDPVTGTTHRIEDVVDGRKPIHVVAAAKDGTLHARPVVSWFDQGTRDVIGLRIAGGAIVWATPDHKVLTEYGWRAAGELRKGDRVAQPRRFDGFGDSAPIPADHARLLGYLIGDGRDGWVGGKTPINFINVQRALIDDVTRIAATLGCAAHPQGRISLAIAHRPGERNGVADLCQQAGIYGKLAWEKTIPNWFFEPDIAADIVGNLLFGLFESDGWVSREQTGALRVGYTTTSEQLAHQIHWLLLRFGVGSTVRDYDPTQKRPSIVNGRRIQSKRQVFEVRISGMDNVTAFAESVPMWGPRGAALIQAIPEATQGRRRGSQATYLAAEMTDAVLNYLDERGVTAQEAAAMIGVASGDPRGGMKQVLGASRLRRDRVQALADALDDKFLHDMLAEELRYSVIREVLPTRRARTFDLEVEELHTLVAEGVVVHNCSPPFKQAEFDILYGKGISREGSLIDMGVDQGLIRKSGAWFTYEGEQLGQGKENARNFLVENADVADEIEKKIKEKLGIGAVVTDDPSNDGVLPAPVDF

[6] = target: T5, Apoptotic protease-activating factor 1 (Homo sapiens, UniProt O14727); format: functional
T5 sequence (O14727 whole entry): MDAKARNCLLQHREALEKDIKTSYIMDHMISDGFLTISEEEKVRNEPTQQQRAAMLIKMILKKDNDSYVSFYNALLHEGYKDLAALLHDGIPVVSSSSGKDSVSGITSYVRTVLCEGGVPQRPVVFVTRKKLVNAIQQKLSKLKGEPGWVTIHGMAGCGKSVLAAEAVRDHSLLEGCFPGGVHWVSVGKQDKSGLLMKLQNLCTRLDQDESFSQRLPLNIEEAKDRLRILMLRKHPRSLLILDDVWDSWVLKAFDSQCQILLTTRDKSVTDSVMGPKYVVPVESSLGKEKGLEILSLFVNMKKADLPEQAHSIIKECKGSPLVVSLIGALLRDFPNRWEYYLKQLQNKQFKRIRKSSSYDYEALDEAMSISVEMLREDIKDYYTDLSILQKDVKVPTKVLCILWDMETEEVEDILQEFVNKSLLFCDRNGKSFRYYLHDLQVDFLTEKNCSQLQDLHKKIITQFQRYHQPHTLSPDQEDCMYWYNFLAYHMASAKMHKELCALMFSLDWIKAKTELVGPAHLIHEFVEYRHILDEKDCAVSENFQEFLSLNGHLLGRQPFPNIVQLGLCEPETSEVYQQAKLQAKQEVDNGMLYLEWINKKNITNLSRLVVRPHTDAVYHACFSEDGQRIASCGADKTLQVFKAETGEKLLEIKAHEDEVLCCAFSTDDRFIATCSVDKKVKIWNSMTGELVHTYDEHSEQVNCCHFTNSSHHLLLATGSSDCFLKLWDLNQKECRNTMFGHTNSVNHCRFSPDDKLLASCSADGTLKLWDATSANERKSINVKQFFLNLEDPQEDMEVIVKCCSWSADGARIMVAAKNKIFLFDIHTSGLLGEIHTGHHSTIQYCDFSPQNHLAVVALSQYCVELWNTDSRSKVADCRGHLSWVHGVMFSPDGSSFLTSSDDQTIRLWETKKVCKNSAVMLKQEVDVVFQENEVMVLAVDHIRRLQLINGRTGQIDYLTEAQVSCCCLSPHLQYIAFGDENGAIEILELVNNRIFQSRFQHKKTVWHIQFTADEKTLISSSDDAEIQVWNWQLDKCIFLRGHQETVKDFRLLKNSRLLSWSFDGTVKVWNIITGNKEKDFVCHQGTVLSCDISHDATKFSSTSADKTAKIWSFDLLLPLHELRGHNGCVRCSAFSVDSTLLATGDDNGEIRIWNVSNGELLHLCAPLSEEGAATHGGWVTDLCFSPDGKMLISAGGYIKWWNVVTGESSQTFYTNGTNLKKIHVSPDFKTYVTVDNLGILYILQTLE

[7] = target: Induced myeloid leukemia cell differentiation protein Mcl-1 (Homo sapiens, UniProt Q07820); format: functional
[8] = target: T6, Replicative DNA helicase DnaB (Mycobacterium tuberculosis, UniProt P9WMR3); assay: DnaB intein splicing inhibitors, dose response, biochemical, cell-free fluorescence (AID 449749); format: functional
T6 sequence (P9WMR3 whole entry): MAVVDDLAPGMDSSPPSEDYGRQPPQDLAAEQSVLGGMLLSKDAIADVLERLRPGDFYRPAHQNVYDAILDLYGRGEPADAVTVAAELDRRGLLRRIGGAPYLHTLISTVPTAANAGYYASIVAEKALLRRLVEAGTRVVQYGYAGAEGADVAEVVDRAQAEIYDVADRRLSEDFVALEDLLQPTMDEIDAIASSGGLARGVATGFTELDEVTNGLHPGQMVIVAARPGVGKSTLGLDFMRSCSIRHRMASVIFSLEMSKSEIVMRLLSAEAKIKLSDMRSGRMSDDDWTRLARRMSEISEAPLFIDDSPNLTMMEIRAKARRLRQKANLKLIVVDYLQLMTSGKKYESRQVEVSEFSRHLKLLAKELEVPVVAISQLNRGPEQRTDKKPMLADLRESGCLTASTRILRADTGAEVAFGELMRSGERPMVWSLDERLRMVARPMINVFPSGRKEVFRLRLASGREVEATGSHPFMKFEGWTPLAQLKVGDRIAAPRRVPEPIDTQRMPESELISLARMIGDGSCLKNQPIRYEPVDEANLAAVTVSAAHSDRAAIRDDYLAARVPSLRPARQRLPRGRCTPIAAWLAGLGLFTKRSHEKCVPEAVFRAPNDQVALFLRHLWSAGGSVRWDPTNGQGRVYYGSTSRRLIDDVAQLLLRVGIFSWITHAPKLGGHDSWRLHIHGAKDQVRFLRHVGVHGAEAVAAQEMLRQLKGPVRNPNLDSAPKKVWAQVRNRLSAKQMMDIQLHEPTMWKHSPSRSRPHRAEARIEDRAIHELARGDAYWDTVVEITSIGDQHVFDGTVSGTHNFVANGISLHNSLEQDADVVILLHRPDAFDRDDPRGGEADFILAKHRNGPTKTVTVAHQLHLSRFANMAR

[9] = target: T3, Polyadenylate-binding protein 1; assay: PABP1 MLLE–PAM2 interaction inhibitors, dose response, miRNA deadenylation inhibitor project, biochemical, fluorescence polarization, Cy5-PAM2 peptide, secondary (AID 602260); format: functional; details: read-out: IC50_Mean
Nonstructural protein 1 = Nonstructural protein 1 (Influenza A virus, UniProt Q194T2); format: functional, Influenza A virus (A/California/07/2009(H1N1))
[10] = target: T7, Nuclear receptor subfamily 0 group B member 1 (Homo sapiens, UniProt P51843); assay: Luminescence-based cell-based high throughput dose response assay for inhibitors of the orphan nuclear receptor subfamily 0, group B, member 1 (DAX1; NR0B1). [Related pubchem assays (depositor defined):AID504766, AID504790]; format: functional
T7 sequence (P51843 whole entry): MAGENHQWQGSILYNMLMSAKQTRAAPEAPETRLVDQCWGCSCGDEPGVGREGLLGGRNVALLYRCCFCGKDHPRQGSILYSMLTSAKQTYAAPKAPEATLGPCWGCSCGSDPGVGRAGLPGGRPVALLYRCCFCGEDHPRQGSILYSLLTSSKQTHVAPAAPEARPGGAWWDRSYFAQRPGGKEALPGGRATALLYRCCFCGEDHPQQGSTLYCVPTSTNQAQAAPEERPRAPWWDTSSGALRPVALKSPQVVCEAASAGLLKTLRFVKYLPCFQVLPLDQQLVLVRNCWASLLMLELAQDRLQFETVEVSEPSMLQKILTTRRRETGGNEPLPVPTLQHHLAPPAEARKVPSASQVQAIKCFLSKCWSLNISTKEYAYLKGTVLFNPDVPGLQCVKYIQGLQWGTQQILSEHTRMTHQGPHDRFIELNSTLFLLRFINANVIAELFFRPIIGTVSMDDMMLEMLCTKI

HEK293 = assay: cells; format: functional, cell-based; details: Homo sapiens

Sequence of Voltage-gated inwardly rectifying potassium channel KCNH2 (Q12809 whole entry): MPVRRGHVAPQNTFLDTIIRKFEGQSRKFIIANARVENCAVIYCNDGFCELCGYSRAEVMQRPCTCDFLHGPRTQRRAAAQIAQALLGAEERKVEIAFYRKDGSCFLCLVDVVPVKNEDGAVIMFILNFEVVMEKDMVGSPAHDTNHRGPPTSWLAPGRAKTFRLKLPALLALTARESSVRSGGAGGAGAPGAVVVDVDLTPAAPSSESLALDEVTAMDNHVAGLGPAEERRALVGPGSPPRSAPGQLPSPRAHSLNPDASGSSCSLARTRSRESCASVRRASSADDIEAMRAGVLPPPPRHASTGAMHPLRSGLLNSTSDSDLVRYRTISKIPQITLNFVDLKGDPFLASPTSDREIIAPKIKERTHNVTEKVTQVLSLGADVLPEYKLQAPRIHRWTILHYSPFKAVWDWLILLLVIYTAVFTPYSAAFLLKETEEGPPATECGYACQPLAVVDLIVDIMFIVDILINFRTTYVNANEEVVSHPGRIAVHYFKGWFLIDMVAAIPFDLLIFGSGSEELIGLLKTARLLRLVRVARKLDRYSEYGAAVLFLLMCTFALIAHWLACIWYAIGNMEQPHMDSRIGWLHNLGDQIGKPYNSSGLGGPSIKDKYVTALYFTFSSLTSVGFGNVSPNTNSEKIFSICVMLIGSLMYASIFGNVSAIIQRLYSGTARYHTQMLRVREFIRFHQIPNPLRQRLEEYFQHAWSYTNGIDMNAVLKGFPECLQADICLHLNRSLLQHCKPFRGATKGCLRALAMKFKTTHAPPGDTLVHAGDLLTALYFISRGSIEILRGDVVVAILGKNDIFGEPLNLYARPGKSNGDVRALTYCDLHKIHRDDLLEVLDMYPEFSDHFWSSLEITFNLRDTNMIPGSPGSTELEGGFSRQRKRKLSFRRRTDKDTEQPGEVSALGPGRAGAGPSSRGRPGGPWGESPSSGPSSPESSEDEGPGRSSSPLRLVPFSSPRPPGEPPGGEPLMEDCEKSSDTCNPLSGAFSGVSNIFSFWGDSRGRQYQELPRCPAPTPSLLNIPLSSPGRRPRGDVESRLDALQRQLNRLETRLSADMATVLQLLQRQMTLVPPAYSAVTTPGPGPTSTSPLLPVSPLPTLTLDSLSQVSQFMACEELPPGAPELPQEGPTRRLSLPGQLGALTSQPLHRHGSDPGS
T3 sequence (P11940 whole entry): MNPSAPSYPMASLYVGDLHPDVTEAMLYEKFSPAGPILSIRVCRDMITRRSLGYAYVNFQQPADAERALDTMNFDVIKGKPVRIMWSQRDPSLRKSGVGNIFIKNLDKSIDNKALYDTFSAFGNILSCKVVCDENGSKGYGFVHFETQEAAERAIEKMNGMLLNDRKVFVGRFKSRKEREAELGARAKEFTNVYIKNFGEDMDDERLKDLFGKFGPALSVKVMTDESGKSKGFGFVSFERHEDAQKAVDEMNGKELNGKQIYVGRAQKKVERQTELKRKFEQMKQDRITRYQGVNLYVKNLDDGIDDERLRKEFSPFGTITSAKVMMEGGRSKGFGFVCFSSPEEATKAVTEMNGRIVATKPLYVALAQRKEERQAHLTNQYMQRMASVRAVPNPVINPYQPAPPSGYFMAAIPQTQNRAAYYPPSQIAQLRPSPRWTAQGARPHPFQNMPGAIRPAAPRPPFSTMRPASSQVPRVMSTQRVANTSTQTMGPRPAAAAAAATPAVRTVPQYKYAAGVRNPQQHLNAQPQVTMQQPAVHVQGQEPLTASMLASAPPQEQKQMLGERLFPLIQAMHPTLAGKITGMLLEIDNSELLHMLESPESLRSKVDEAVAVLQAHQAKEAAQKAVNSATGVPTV
Sequence of Glucose-6-phosphate 1-dehydrogenase (P11413 whole entry): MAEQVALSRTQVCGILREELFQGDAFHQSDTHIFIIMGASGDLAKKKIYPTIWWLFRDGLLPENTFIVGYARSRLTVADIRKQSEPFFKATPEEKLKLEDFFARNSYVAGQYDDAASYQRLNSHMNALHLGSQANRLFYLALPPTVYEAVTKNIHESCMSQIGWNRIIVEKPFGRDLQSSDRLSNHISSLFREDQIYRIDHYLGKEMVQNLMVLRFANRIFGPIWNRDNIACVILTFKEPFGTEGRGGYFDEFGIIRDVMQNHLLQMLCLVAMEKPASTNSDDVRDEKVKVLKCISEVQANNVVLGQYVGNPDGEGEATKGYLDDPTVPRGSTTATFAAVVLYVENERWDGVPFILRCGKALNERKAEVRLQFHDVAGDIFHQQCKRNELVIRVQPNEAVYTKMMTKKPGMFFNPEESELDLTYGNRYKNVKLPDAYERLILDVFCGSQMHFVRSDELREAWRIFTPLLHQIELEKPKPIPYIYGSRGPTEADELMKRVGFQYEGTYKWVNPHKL
Sequence of Induced myeloid leukemia cell differentiation protein Mcl-1 (Q07820 whole entry): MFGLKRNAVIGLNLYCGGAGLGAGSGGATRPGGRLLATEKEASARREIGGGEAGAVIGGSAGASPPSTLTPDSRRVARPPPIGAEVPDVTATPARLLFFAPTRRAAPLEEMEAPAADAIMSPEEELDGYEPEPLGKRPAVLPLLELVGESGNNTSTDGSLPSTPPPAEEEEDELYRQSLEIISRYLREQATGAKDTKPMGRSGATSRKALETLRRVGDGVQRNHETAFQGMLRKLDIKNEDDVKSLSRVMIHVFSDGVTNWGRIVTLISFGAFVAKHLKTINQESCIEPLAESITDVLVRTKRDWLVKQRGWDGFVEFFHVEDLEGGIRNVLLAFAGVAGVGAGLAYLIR
Sequence of Nonstructural protein 1 (Q194T2 whole entry): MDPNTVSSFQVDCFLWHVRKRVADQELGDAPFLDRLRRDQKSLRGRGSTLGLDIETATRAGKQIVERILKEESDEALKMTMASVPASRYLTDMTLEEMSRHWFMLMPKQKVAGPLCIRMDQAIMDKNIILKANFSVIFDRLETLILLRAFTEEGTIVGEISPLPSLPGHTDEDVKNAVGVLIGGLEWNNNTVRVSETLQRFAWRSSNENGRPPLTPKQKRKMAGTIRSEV

`CCOP(=S)(OCC)SCSC(C)(C)C` [TERBUFOS] was tested, and the AC50 [1] was 39.8 µM (inconclusive).

In the case of `O=C1Nc2cc(C(=O)NCCCN3CCCC3)ccc2S/C1=C\c1ccccc1`, the IC50 [2] was 14.5 µM (active) and the IC50 [3] was > 80 µM (inactive).

In the case of `Nc1ccc(/N=N\c2ccccc2)c(N)c1`, the AC50 [4] was 14.1 µM (inconclusive) and the AC50 [1] was 50.1 µM (inconclusive).

With `NNC(=O)c1oc2nc(-c3ccc(Cl)cc3)cc(-c3ccccc3)c2c1N` the IC50 (CHO) was > 49.7 µM (inactive).

In the case of `Cc1ccc(NC2=C(NC(=O)c3ccccc3)C(=O)c3ccccc3C2=O)cc1Cl`, the IC50 [5] was > 66 µM (inactive), the EC50 (Protein RecA) was 2.52 µM (active) and the IC50 [6] was 17 µM (active). The IC50 [7] was 3.38 µM (active), the AC50 [8] was 3 µM (active) and the IC50 [9] was > 66 µM (inactive). The IC50 (Nonstructural protein 1) was 17.5 µM (active) and the IC50 [3] was > 80 µM (inactive).

`Cc1cc(Cl)c2oc(C(=O)N(CCO)Cc3ccccc3)c(C)c2c1` was tested, and the IC50 [10] was > 67.5 µM (inactive) and the IC50 (HEK293) was > 67.5 µM (inactive).

In the case of `CCOc1ccc(N(CC(=O)Nc2ccc(C)c(C)c2)S(C)(=O)=O)cc1`, the IC50 [10] was > 67.5 µM (inactive) and the IC50 (HEK293) was > 67.5 µM (inactive).
